The values below are quoted from earlier work in patent US6465194B2, “Monoclonal antibodies to 4,4′-dinitrocarbanilide and a method for analyzing for the drug nicarbazin” (The United States of America as represented by the …, priority 1999, dated 2002).

For one data set, the system named is Eimeria tenella. To be noted: Cuckler et al., 1955.
For data set [1] the following is noted: chickens; Porter and Gilfilan, 1955.

As for `Cc1cc(C)nc(O)n1.O=C(Nc1ccc([N+](=O)[O-])cc1)Nc1ccc([N+](=O)[O-])cc1` [DNC-HDP], in the data set on Eimeria tenella (complex versus DNC alone), the “potency in the control of Eimeria tenella relative to DNC by itself” value was “ten”. As to `Cc1cc(C)nc(O)n1` [HDP, 2-hydroxy-4,6-dimethylpyrimidine], the anticoccidial activity result in the data set with Eimeria tenella (used alone) is on record as “no anticoccidial activity”. As to `O=C(Nc1ccc([N+](=O)[O-])cc1)Nc1ccc([N+](=O)[O-])cc1` [DNC, 4,4′-dinitrocarbanilide], the excretion rate entry in data set [1] is “more slowly than HDP”.
